Measurements as given in patent US20080299108A1, “Peptides for Diagnostic and Therapeutic Methods for Celiac Sprue” (priority 2005, published 2008).

Legend:
[1] = test system: rat brush border membrane (BBM) protein; assay: Rat brush border membrane (BBM) digestion of gliadin peptides, LC-MS; format: in vitro ADME
Procedure: To dissect this complex process, liquid chromatography coupled mass spectroscopy analysis (LC-MS-MS) was utilized to investigate the pathways and associated kinetics of hydrolysis of immunodominant gliadin peptides treated with rat BBM preparations. Because the rodent is an excellent small animal model for human intestinal structure and function, rat BBM was chosen as a suitable model system for these studies.
BBM fractions were prepared from rat small intestinal mucosa as described by Ahnen et al. (1982) J. Biol. Chem. 257, 12129-35. […] No proline aminopeptidase (EC 3.4.11.5) or prolyl endopeptidase activity (PEP, EC 3.4.21.26) activity was detectable (<5 μU/μg). Alkaline phosphatase and sucrase were used as control BBM enzymes with activities of 66 μU/μg and 350 μU/μg, respectively.
BBM fractions were partially purified from the small intestinal mucosa of adult female rats maintained on an ad libitum diet of wheat-based standard rodent chow. Total protein content was determined by a modified method of Lowry with BSA as a standard. Alkaline phosphatase activity was determined with nitrophenyl phosphate. Sucrase activity was measured using a coupled glucose assay.
Proteolysis with the BBM preparation was investigated using the peptide (SEQ ID NO:1) (SEQ ID NO:1) […], a product of chymotryptic digestion of α-9 gliadin (Arentz-Hansen et al. (2000) J. Exp. Med. 191, 603-12). […] It was subjected to BBM digestion, followed by LC-MS-MS analysis. A standard 50 μl digestion mixture contained 100 μM of synthetic peptide, 10 μM tryptophan and Cbz-tryptophan as internal standards, and resuspended BBM preparations with a final protein content of 27 ng/μl and exogenous proteins, as indicated, in phosphate buffered saline. After incubation at 37° C. for the indicated time, the enzymes were inactivated by heating to 95° C. for 3 minutes. The reaction mixtures were analyzed by LC-MS (SpectraSystem, ThermoFinnigan) using a C18 reversed phase column (Vydac 218TP5215, 2.1×150 mm) with water:acetonitrile:formic acid (0.1%):trifluoroacetic acid (0.025%) as the mobile phase (flow: 0.2 ml/min) and a gradient of 10% acetonitrile for 3 minutes, 10-20% for 3 minutes, 20-25% for 21 minutes followed by a 95% wash. Peptide fragments in the mass range of m/z=300-2000 were detected by electrospray ionization mass spectroscopy using a LCQ ion trap, and their identities were confirmed by MSMS fragmentation patterns.

rat jejunum = assay: In vivo intestinal perfusion in intact adult rats; details: 15-20 cm segment of jejunum, residence time 20 min
[2] = test system: pancreatic proteases (elastase, trypsin, chymotrypsin); format: in vitro ADME
Text: Because BBM exopeptidases are restricted to N- or C-terminal processing, it was investigated if generation of additional free peptide ends by pancreatic enzymes would accelerate digestion.

[3] = biological target: T1, tissue transglutaminase (tTGase) (Homo sapiens, UniProt P21980); details: cited from earlier work
T1 sequence (P21980 1-687): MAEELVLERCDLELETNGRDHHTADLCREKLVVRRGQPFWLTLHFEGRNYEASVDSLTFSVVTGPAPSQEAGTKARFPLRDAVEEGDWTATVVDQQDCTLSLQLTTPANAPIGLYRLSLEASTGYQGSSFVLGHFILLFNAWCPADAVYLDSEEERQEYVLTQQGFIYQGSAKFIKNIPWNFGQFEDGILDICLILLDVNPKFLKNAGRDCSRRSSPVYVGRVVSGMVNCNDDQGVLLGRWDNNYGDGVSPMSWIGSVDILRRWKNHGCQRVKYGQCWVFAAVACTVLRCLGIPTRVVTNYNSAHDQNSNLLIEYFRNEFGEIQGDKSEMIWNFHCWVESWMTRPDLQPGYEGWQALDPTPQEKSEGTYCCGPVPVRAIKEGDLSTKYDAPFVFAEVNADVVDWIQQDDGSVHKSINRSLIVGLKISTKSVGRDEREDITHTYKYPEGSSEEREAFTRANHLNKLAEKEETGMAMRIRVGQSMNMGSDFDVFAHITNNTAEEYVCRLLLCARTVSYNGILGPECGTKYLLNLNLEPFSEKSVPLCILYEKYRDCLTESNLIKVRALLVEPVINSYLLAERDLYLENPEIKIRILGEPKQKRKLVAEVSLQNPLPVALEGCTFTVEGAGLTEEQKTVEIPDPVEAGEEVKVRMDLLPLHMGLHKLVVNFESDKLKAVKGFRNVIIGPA

Row | Sequence | apparent half time of disappearance of the parent peptide (t1/2) ([1]; 27 ng/μl rat BBM protein, 100 μM peptide, 37° C.) [min] | digestion in the presence of exogenous DPP IV ([1]; BBM plus 6-fold excess activity of exogenous fungal DPP IV) | fraction of peptide proteolyzed in the perfusion experiment (rat jejunum) [%] | proteolysis with trypsin or chymotrypsin [2] | hydrolysis by elastase ([2]; elastase at a high (non-physiological) concentration of 100 ng/μl) | specificity of tTGase relative to its target peptide sequence in fibrinogen [3] [fold]
1 | QLQPFPQPQLPY | 35 | complete digestion was observed within four hours | > 90 | – | – | –
2 | PQPQLPYPQPQLPY | – | – | – | No proteolysis was detected | capable of hydrolyzing | 5
